Measured values taken from patent publication US9938269B2, “Inhibitor compounds of phosphodiesterase type 10A” (ABBVIE INC., priority 2011, dated 2018).
Structures can show the parent of a compound that is named as a salt.

How the values were obtained:
[1] = Determination of the microsomal half-life, rat liver microsomes; conditions: rat, liver microsomes, pH 7.4
PDE10A (human) = target: T1, PDE10A (human) (Homo sapiens, UniProt Q9Y233); assay: Measurement of PDE activity (HTRF cAMP kit), human PDE10A; assay type: biochemical; conditions: PDE enzymatic reaction, substrate 20 nM for PDE10, 60 minutes at 29 C
T1 construct: purchased BPS Bioscience
T1 sequence (Q9Y233 whole entry): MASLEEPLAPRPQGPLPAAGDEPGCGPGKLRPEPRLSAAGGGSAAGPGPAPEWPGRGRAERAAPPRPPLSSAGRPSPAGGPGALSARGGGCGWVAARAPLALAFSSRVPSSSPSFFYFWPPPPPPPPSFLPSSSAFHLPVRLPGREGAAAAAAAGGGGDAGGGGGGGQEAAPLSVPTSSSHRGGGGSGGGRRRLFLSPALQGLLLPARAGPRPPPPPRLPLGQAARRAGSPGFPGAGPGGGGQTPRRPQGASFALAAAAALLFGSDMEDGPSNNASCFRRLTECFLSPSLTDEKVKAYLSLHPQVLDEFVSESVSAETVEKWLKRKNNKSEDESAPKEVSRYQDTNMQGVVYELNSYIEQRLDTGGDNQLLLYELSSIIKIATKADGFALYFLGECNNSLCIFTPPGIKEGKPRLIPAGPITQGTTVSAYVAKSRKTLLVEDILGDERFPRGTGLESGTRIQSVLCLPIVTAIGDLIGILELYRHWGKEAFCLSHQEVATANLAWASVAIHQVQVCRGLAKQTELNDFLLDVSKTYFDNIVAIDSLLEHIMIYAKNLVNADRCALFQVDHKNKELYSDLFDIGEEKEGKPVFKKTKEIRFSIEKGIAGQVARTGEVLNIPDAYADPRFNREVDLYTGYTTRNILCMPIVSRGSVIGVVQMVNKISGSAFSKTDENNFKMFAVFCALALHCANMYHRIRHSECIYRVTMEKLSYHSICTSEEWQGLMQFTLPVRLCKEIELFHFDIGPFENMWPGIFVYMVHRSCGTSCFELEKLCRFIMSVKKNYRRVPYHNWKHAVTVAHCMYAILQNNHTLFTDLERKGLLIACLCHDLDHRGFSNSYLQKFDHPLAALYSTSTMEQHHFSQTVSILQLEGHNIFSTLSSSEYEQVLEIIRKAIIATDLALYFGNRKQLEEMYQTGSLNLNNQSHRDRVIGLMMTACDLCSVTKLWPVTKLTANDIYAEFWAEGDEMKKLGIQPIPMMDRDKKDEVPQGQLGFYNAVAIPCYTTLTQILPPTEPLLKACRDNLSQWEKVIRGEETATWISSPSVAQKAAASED
Outline: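 Recombinant human PDE10A (10–250 pM range across PDEs) with 20 nM cAMP substrate in 20 mM Tris-HCl pH 7.5, 10 mM MgCl2, 0.1% BSA, compound pre-mixed with enzyme. Ran 60 min at 29 °C. Remaining cAMP read by HTRF, converted to % of uninhibited activity, and IC50 fitted.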

[2] = Determination of the microsomal half-life, human liver microsomes; conditions: human, liver microsomes, pH 7.4
Experimental: The test substances were incubated in a concentration of 0.5 μM as follows:
0.5 μM test substance are preincubated together with liver microsomes from different species (from rat, human or other species) (0.25 mg of microsomal protein/10 in 0.05 M potassium phosphate buffer of pH 7.4 in microtiter plates at 37° C. for 5 min. The reaction is started by adding NADPH (1 mg/mL). After 0, 5, 10, 15, 20 and 30 min., 50 μl aliquots are removed, and the reaction is immediately stopped and cooled with the same volume of acetonitrile. The samples are frozen until analyzed. The remaining concentration of undegraded test substance is determined by MSMS. The half-life (T½) is determined from the gradient of the signal of test substance/unit time plot, it being possible to calculate the half-life of the test substance, assuming first order kinetics, from the decrease in the concentration of the compound with time. The microsomal clearance (mCl) is calculated from mCl=ln 2/T½/(content of microsomal protein in mg/ml)×1000 [ml/min/mg]

microsomal CLint at 0.5 μM [1]	IC50 (PDE10A (human))	microsomal CLint at 0.5 μM [2]	SMILES
> 220 µL/min/mg	< 0.1 µM	100 to 220 µL/min/mg	O=C1c2c(N3CCOCC3)ccnc2CN1CCc1ccc(-c2ccccc2)cn1 [compound 486, 4-Morpholino-6-[2-(5-phenyl-2-pyridyl)ethyl]-7H-pyrrolo[3,4-b]pyridin-5-one]
> 220 µL/min/mg	< 0.1 µM	100 to 220 µL/min/mg	O=C1c2c(cc(F)cc2-c2ccncc2)CN1CCc1ccc2ccccc2n1 [Example 15, 5-Fluoro-7-pyridin-4-yl-2-(2-quinolin-2-yl-ethyl)-2,3-dihydro-isoindol-1-one]
< 100 µL/min/mg	< 0.1 µM	< 100 µL/min/mg	Cn1c(CCN2Cc3nccc(N4CCOCC4)c3C2=O)nc2ccccc21 [Example 216, 6-[2-(1-Methyl-1H-benzoimidazol-2-yl)-ethyl]-4-morpholin-4-yl-6,7-dihydro-pyrrolo[3,4-b]pyridin-5-one]
< 100 µL/min/mg	< 0.1 µM	< 100 µL/min/mg	O=C1c2c(cccc2-c2ccncc2)CN1CCc1nc2ccccc2s1 [Example 223, 2-(2-Benzothiazol-2-yl-ethyl)-7-pyridin-4-yl-2,3-dihydro-isoindol-1-one trifluoroacetate]
< 100 µL/min/mg	0.2 to 0.5 µM	< 100 µL/min/mg	O=C1c2c(N3CCOCC3)ccnc2CN1CCc1ccc(Cl)cn1 [compound 505, 6-[2-(5-Chloro-2-pyridyl)ethyl]-4-morpholino-7H-pyrrolo[3,4-b]pyridin-5-one]
< 100 µL/min/mg	0.1 to 0.2 µM	< 100 µL/min/mg	COc1ccc(-c2cc[nH]n2)c2c1C(=O)N(CCc1cn3ccccc3n1)C2 [compound 454, 2-(2-Imidazo[1,2-a]pyridin-2-yl-ethyl)-7-methoxy-4-(1H-pyrazol-3-yl)-2,3-dihydro-isoindol-1-one]
100 to 220 µL/min/mg	< 0.1 µM	> 220 µL/min/mg	COc1ccc(NC2COC2)c2c1CN(CCc1nc3ccccc3n1C)C2=O [compound 411, 4-Methoxy-2-[2-(1-methyl-1H-benzoimidazol-2-yl)-ethyl]-7-(oxetan-3-ylamino)-2,3-dihydro-isoindol-1-one]
< 100 µL/min/mg	0.1 to 0.2 µM	< 100 µL/min/mg	O=C1c2c(cccc2N2CCS(=O)(=O)CC2)CN1CCc1nc2ccccc2[nH]1 [Example 175, 2-[2-(1H-Benzoimidazol-2-yl)-ethyl]-7-(1,1-dioxo-thiomorpholin-4-yl)-2,3-dihydro-isoindol-1-one]
< 100 µL/min/mg	0.2 to 0.5 µM	< 100 µL/min/mg	CN(C)C1CCN(c2ccnc3c2C(=O)N(CCc2ccc4ccccc4n2)C3)CC1 [Example 363, 4-(4-Dimethylamino-piperidin-1-yl)-6-(2-quinolin-2-yl-ethyl)-6,7-dihydro-pyrrolo[3,4-b]pyridin-5-one hydrochloride]
< 100 µL/min/mg	< 0.1 µM	< 100 µL/min/mg	CN(C)CCOc1ccc(-c2ccncc2)c2c1CN(CCc1ccc3ccccc3n1)C2=O [compound 529, 4-(2-Dimethylamino-ethoxy)-7-pyridin-4-yl-2-(2-quinolin-2-yl-ethyl)-2,3-dihydro-isoindol-1-one]
< 100 µL/min/mg	< 0.1 µM	< 100 µL/min/mg	O=C1c2c(cccc2N2CC[S+]([O-])CC2)CN1CCc1ccc2ccccc2n1 [Example 135, 7-(1-oxo-thiomorpholin-4-yl)-2-(2-quinolin-2-yl-ethyl)-2,3-dihydro-isoindol-1-one]
100 to 220 µL/min/mg	< 0.1 µM	100 to 220 µL/min/mg	O=C1c2c(cccc2NC2COC2)CN1CCc1ccc2ccccc2n1 [Example 274, 7-(Oxetan-3-ylamino)-2-(2-quinolin-2-yl-ethyl)-2,3-dihydro-isoindol-1-one]
< 100 µL/min/mg	< 0.1 µM	> 220 µL/min/mg	Cn1c(CCN2Cc3cccc(-c4cccnc4)c3C2=O)nc2ccccc21 [Example 196, 2-[2-(1-Methyl-1H-benzoimidazol-2-yl)-ethyl]-7-pyridin-3-yl-2,3-dihydro-isoindol-1-one]
< 100 µL/min/mg	< 0.1 µM	< 100 µL/min/mg	O=C1c2c(N3CCS(=O)(=O)CC3)ccnc2CN1CCc1ccc2ccccc2n1 [Example 137, 4-(1,1-Dioxo-thiomorpholin-4-yl)-6-(2-quinolin-2-yl-ethyl)-6,7-dihydro-pyrrolo[3,4-b]pyridin-5-one]
< 100 µL/min/mg	< 0.1 µM	100 to 220 µL/min/mg	O=C1c2c(N3CC4COCC4C3)ccnc2CN1CCc1nc2ccccc2s1 (stereo not drawn) [compound 426, 4-(1,3,3a,4,6,6a-Hexahydrofuro[3,4-c]pyrrol-5-yl)-6-[2-(1,3-benzothiazol-2-yl)ethyl]-7H-pyrrolo[3,4-b]pyridin-5-one]
< 100 µL/min/mg	0.1 to 0.2 µM	< 100 µL/min/mg	O=C(O)C1CCN(c2ccnc3c2C(=O)N(CCc2ccc4ccccc4n2)C3)CC1 [Example 366, 1-[5-Oxo-6-(2-quinolin-2-yl-ethyl)-6,7-dihydro-5H-pyrrolo[3,4-b]pyridin-4-yl]-piperidine-4-carboxylic acid]
< 100 µL/min/mg	0.2 to 0.5 µM	< 100 µL/min/mg	O=C1c2c(-c3ccncc3)ccnc2CN1CCc1nc2ccccc2o1 [compound 418, 6-[2-(1,3-Benzoxazol-2-yl)ethyl]-4-(4-pyridyl)-7H-pyrrolo[3,4-b]pyridin-5-one]
< 100 µL/min/mg	0.2 to 0.5 µM	100 to 220 µL/min/mg	O=C1c2c(cccc2N2CCN(c3ccncc3)CC2)CN1CCc1ccc2ccccc2n1 [Example 106, 7-(4-Pyridin-4-yl-piperazin-1-yl)-2-(2-quinolin-2-yl-ethyl)-2,3-dihydro-isoindol-1-one]
< 100 µL/min/mg	< 0.1 µM	< 100 µL/min/mg	Cn1c(CCN2Cc3nccc(-c4cncnc4)c3C2=O)nc2ccccc21 [Example 364, 6-[2-(1-Methyl-1H-benzoimidazol-2-yl)-ethyl]-4-pyrimidin-5-yl-6,7-dihydro-pyrrolo[3,4-b]pyridin-5-one]
100 to 220 µL/min/mg	< 0.1 µM	> 220 µL/min/mg	O=C1c2c(cccc2-c2ccncc2)CN1CCc1ccc2sccc2n1 [Example 19, 7-Pyridin-4-yl-2-(2-thieno[3,2-b]pyridin-5-yl-ethyl)-2,3-dihydro-isoindol-1-one]
100 to 220 µL/min/mg	< 0.1 µM	< 100 µL/min/mg	O=C1c2cccc(-c3ccncc3)c2CN1CCc1cn2ccccc2n1 [Example 316, 2-(2-Imidazo[1,2-a]pyridin-2-yl-ethyl)-4-pyridin-4-yl-2,3-dihydro-isoindol-1-one]
> 220 µL/min/mg	< 0.1 µM	< 100 µL/min/mg	Cc1ccc2ccc(CCN3Cc4nccc(-c5ccncc5)c4C3=O)nc2c1 [compound 394, 6-[2-(7-Methyl-2-quinolyl)ethyl]-4-(4-pyridyl)-7H-pyrrolo[3,4-b]pyridin-5-one trifluoroacetate]
< 100 µL/min/mg	< 0.1 µM	< 100 µL/min/mg	O=C1c2c(N3CCOCC3)ccc(F)c2CN1CCc1cn2ccccc2n1 [Example 295, 4-Fluoro-2-(2-imidazo[1,2-a]pyridin-2-yl-ethyl)-7-morpholin-4-yl-2,3-dihydro-isoindol-1-one]
100 to 220 µL/min/mg	< 0.1 µM	100 to 220 µL/min/mg	[2H]C1([2H])OC([2H])([2H])C([2H])([2H])N(c2ccnc3c2C(=O)N(CCc2ccc4ccccc4n2)C3)C1([2H])[2H] [compound 485, 4-(2,2,3,3,5,5,6,6-Octadeuteriomorpholin-4-yl)-6-[2-(2-quinolyl)ethyl]-7H-pyrrolo[3,4-b]pyridin-5-one]
100 to 220 µL/min/mg	< 0.1 µM	< 100 µL/min/mg	O=C1c2nccc(-c3ccncc3)c2CN1CCc1ccc2ccccc2n1 [compound 451, 4-Pyridin-4-yl-6-(2-quinolin-2-yl-ethyl)-5,6-dihydro-pyrrolo[3,4-b]pyridin-7-one]
100 to 220 µL/min/mg	< 0.1 µM	100 to 220 µL/min/mg	Cc1cnc(CCN2Cc3nccc(N4CCOCC4)c3C2=O)c(C)c1 [compound 489, 6-[2-(3,5-Dimethyl-2-pyridyl)ethyl]-4-morpholino-7H-pyrrolo[3,4-b]pyridin-5-one]
< 100 µL/min/mg	< 0.1 µM	< 100 µL/min/mg	O=C1c2c(NC3COC3)ccnc2CN1CCc1ccc2ccccc2n1 [Example 275, 4-(Oxetan-3-ylamino)-6-(2-quinolin-2-yl-ethyl)-6,7-dihydro-pyrrolo[3,4-b]pyridin-5_]
100 to 220 µL/min/mg	< 0.1 µM	< 100 µL/min/mg	O=C1c2c(-c3cn[nH]c3)ccnc2CN1CCc1ccc2ccccc2n1 [Example 156, 4-(1H-Pyrazol-4-yl)-6-(2-quinolin-2-yl-ethyl)-6,7-dihydro-pyrrolo[3,4-b]pyridin-5-one]
100 to 220 µL/min/mg	< 0.1 µM	< 100 µL/min/mg	COc1ccc(-c2ccncc2)c2c1C(=O)N(CCc1nc3ccccc3s1)C2 [compound 396, 2-[2-(1,3-Benzothiazol-2-yl)ethyl]-7-methoxy-4-(4-pyridyl)isoindolin-1-one]

SMILES	microsomal CLint at 0.5 μM [1]	IC50 (PDE10A (human))	microsomal CLint at 0.5 μM [2]
O=C1c2c(N3CCC4(COC4)C3)ccnc2CN1CCc1nc2ccccc2s1 [compound 424, 6-[2-(1,3-Benzothiazol-2-yl)ethyl]-4-(2-oxa-7-azaspiro[3.4]octan-7-yl)-7H-pyrrolo[3,4-b]pyridin-5-one]	< 100 µL/min/mg	< 0.1 µM	< 100 µL/min/mg
